Consider one compound from patent US20020115724A1, “Methods and agents for inhibiting protein aging” (priority 1985, published 2002).

In one data set the test system is gelatin (collagen). Kind of data set: Protein trapping: radioiodinated albumin bound to gelatin (collagen) agarose beads with glucose-6-phosphate. The class given is biochemical. Particulars: agent 200 mN, 400 mN glucose-6-phosphate, two weeks, 37° C. The text has this: To more precisely measure the effect of the agents on the inhibition of protein crosslinking, an assay system was devised to measure the extent of in vitro binding of a soluble protein to an insoluble protein. This assay system mimics the events which occur in tissues in which serum proteins become bound to proteins in extravascular matrix and which lead to accumulation of protein and narrowing of vessel lumina in several other tissues. These events in vivo give rise to kidney disease and atherosclerotic disease, and lead to the pathologies associated with diabetes and aging.
To measure protein trapping (i.e., binding or accumulation), gelatin (collagen) was coupled to activated agarose beads (Affigel 10, Bio-Red Laboratories) by routine methods. After coupling, all remaining active sites on the beads were quenched by reaction with glycine ethyl ester.
The beads were incubated for two weeks with bovine serum albumin and 400 mN glucose-6-phosphate, a more reactive form of glucose which forms early glycosylation products with proteins more rapidly than does glucose. […] The bovine serum albumin was radioiodinated so that the amount which became bound to the beads could be measured. […]
After a two-week incubation of the reaction mixtures at 37° C., the beads were washed extensively with chaotropic agents and the covalently bound radioactivity was determined. […]

Another data set deals with normal and diabetic rats. Kind of data set: Aorta advanced glycosylation endproduct content (specific fluorescence of collagen). The class given is in vivo, rat. The settings on record: for Advanced glycosylation products: aorta, 25 mg/kg daily i.p., 16 weeks. The protocol:
The experiment consisted of giving both normal and diabetic rats daily intraperitoneal doses of the agent aminoguanidine hydrochloride at a dose of 25 mg per kilogram of body weight, for a period of 16 weeks. […] Diabetes was induced prior to drug therapy with a single dose of streptozotocin. Control animals, both diabetic and normal, received no drug.
Aorta samples from the same groups of animals described in Example IV above were subjected to analysis for Advanced Glycosylation Endproducts (A.G.E.) content and solubility.
Aortas were finely minced with dissecting scissors, delipidated with 5 mL of chloroform: methanol (2:1), washed 5 times with buffer, and divided into aliquots for the following assessments of cross-linking:
(A) Specific fluorescence of collagen after complete solubilization by proteinase k and pepsin.
After treatment for the prescribed period, soluble material was separated from insoluble material by centrifugation (50,000× g, 1 hour), and all fractions were lyophilized and hydrolyzed in 6M HCl for determination of total hydroxyproline.

For data set [1], the system named is Streptozotocin-diabetic male Lewis rats. Kind of data set: Tail tendon collagen solubility (pepsin), streptozotocin-diabetic rats. Particulars: 9 months; for Collagen Solubility: tail tendon. The class given is in vivo, rat. The protocol:
(§1) Streptozotocin-diabetic male Lewis rats were treated for a 9-month time period with daily doses of aminoguanidine hydrochloride of 0, 6.25, 12.5, 25, and 50 mg/kg/day. After the treatment period, collagen in tail tendon fiber was subjected to solubility determination. Ten mg samples were incubated with gentle rocking for 5 hours at 4° C. in 5 ml of 0.5M acetic acid containing 1 mg pepsin. The samples were then centrifuged at 50,000× g for 1 hour, and the soluble and insoluble fraction separated by decanting. Each fraction was hydrolyzed in 6N HCl and total hydroxyproline measured.

Another data set deals with BB/Worcester rat. Kind of data set: Tail tendon collagen solubility (pepsin), BB/Worcester rats. In kind it is in vivo. Particulars: 6 months; for Collagen Solubility: tail tendon. The protocol: as §1
The effect of aminoguanidine administration on collagen cross-linking was examined in a genetically-diabetic animal model, the BB/Worcester rat. Once the animals become diabetic, daily insulin injections are essential for survival. Glucose levels are maintained at a moderate level (250-350 mg %), much lower than in the streptozotocin-diabetic animals (>500 mg %).
Diabetic and non-diabetic controls were treated orally with aminoguanidine hydrochloride at 12.5 and 50 mg/kg/day for 6 months. Control animals were dosed with water only. Tail tendon collagen solubility was then determined by the pepsin method described in Example IX.

For another data set, the system named is rats. Particulars: hydrochloride, cited from earlier work; for toxicity in animals: in words.
Another data set relates to histamine. The settings on record: in vivo; cited from earlier work.
For the next data set, the system named is diabetic rats. Particulars: cited from earlier work.

Structures are written as SMILES. Where a name gives a salt, the structure may show the parent alone. Read-outs that look alike come from different tables or passages of the source.

As to `N=C(N)NN` [aminoguanidine hydrochloride], the “amount of protein trapping (radiolabeled albumin bound to collagen beads)” value with gelatin (collagen) was “greatly reduced”. For the same compound, the Advanced glycosylation products with normal and diabetic rats (diabetic rats) is reported as 4.5 ± 0.1 Specific fluorescence per mg hydroxyproline; in the data set on normal and diabetic rats (normal rats), 2.8 ± 0.1 Specific fluorescence per mg hydroxyproline. Also, in the data set on normal and diabetic rats (treated diabetic rats vs untreated normal rats), the “level of fluorescent advanced glycosylation products in aortic tissue relative to untreated normal rats” value is 1.3 times. The “prevention of the diabetes-induced fall in tail tendon collagen solubility” value in data set [1] (6.25 up to 50 mg/kg/day orally) is recorded as “significantly prevented this change in a dose-dependent manner”; in the data set on BB/Worcester rat (12.5 and 50 mg/kg/day orally), “prevented significantly, in a dose-dependent manner”. Moreover, the “prevention of the diabetes induced cross-linking” value in data set [1] (highest dose (50 mg/kg/day orally)) is 80%. Besides, the “Collagen Solubility” value was found to be 66.7 ± 1.2% in data set [1] (Diabetic, 12.5 mg/kg/day); 75.9 ± 0.4% in data set [1] (Diabetic, 50 mg/kg/day); 88.2 ± 0.2% in data set [1] (Normal, 50 mg/kg/day); 66.7 ± 1.2% in the data set on BB/Worcester rat (Diabetic, 12.5 mg/kg/day orally); 75.9 ± 0.4% with BB/Worcester rat (Diabetic, 50 mg/kg/day orally); 88.2 ± 0.2% with BB/Worcester rat (Normal, 50 mg/kg/day orally). For the same compound, the toxicity in animals entry was “low toxicity in animals” in the data set on rats and “very low toxicity” in the data set on rats (listed as hydrochloride derivative). Also, the LD50 in the data set with rats (subcutaneously, rats, listed as hydrochloride derivative) was 2984 mg/kg. Besides, the levels of histamine entry in the data set with histamine is on record as “increase levels of histamine”. Moreover, the “kidney glomerular basement membrane protein crosslinking” value in the data set with diabetic rats is given as “diminishes kidney glomerular basement membrane protein crosslinking in diabetic rats”.
